# Reference: publication PMC7156612, “Olinciguat, an Oral sGC Stimulator, Exhibits Diverse Pharmacology Across Preclinical Models of Cardiovascular, Metabolic, Renal, and Inflammatory Disease” (Frontiers in Pharmacology, 2020)
# Where “and” joins values, the source holds several entries; their conditions need not be identical. Equal entries are not always repeated.
# What was measured:
# [1] = Quantitative whole-body autoradiography in Long-Evans rats; assay type: in vivo, rat; details: single p.o. 3 mg/kg, 14C-derived radioactivity
# Protocol: Quantitative whole-body autoradiography (QWBA) assays were performed at QPS, LLC (Newark, DE) as described previously (Solon et al., 2002). Male Long-Evans (LE) rats (218–262 g, n=11, Hilltop Lab Animals, Inc., Scottdale, PA) were studied. All rats were administered a single p.o. dose of [^14C]-olinciguat at a target dose of 3 mg/kg and approximately 200 µCi/kg formulated in PEG 400 in water (60:40 v/v). Immediately prior to euthanasia, blood was obtained via cardiac puncture for plasma radioactivity determinations by liquid scintillation counting. At each timepoint (1, 2, 4, 8, 12, 24, 48, 72, 96, 168, and 504 h post-dose), one rat was euthanized by immersion in a hexane/solid carbon dioxide bath and frozen for at least 15 min for QWBA analysis. Each frozen rat carcass was embedded in a 2% carboxymethylcellulose matrix with a microtome stage at −20°C. Concentrations of radioactivity were used to determine the concentration of compound equivalents in each tissue and in plasma using the Specific Activity of 66.7 µCi/mg of [^14C]-olinciguat. Whole body sections for each rat were mounted on a cardboard backing, covered with thin plastic wrap, and exposed along with calibration standards of [^14C]-glucose at 10 different concentrations (0.00096 to 7.8 µCi/g) to a ^14C-sensitive phosphor imaging plate (Fuji Biomedical, Stamford, CT). Imaging plates were scanned using the Typhoon 9410 image acquisition system (GE/Molecular Dynamics, Sunnyvale, CA, USA). Radioactivity concentration in tissues was quantified by image densitometry using MCID image analysis software (v. 7.0, Interfocus Imaging Ltd) and a standard curve constructed from the integrated response (molecular dynamics counts/mm^2) and the nominal concentrations of [^14C]-glucose standards. Tissue concentration data were obtained for virtually all tissues (see Supplemental Materials). The concentrations of radioactivity were expressed as the microgram equivalents of [^14C]-olinciguat per gram of sample. An upper and lower limit of quantification, determined by using the radioactive concentration of the highest and lowest calibration standards divided by the specific activity of the test article in formulation, was applied to the data. Phoenix® WinNonLin® v.6.3 was used to determine PK parameters, including maximal concentration (Cmax) and area under the curve of all observed points (AUCall). Tissue:plasma AUCall ratios were determined.
# [2] = test system: spontaneously hypertensive rats (SHR); assay: Arterial hemodynamics by telemetry in spontaneously hypertensive rats; assay type: in vivo, rat
# Protocol: The Dataquest A.R.T.™ acquisition and analysis system (Data Sciences International [DSI], St. Paul, MN) was employed to monitor and analyze hemodynamic data from conscious, freely moving rats surgically implanted with a telemetry pressure transmitter (PA-C40). Telemetry transmitter implantation was performed on rats under sterile conditions. Rats were anesthetized with isoflurane and body temperature was maintained with a heating pad during surgery. A laparotomy was performed to expose the abdominal aorta. The catheter tip of the telemetry transmitter was inserted into the abdominal aorta and secured with a 5-0 silk suture (Ethicon, Inc., Somerville, NJ). The abdominal incision was closed with uninterrupted suture (4-0 silk, Ethicon, Inc., Somerville, NJ) and the telemetry transmitter was placed in the abdominal cavity and secured to the abdominal wall. Approximately 100 µl of 0.25% marcaine was applied directly to the closed abdominal wall, and the skin was then closed with suture (4-0 Vicryl® absorbable, Ethicon, Inc., Somerville, NJ). Buprenorphine (0.05 mg/kg/day, subcutaneous [s.c.]) was administered immediately after the surgery for postoperative pain relief. After recovery from anesthesia, rats were returned to their home cages, placed on DSI receivers, and allowed a 5- to 14-day recovery period. Arterial hemodynamics were measured continuously and recorded throughout the study. For acute studies, analysis was based on hourly averages, for chronic studies, analysis was based on daily or weekly averages.
# Spontaneously hypertensive rats (SHRs) (n=6, male, 230–250 g, 14 weeks of age) and Wistar rats (n=6, male, 230–250 g, 12 weeks of age) were implanted with telemetry transmitters as described above. Olinciguat was formulated as a suspension in a vehicle containing 0.5% methylcellulose and 0.2% Tween. Rats were p.o. dosed with a dosing volume of 5 ml/kg. […] Using plasma from tail vein, olinciguat plasma concentrations were determined at 1, 6, and 24 h post-dose on day 4 and reported as the mean from Wistar (n=3) and SHR (n=3). Hemodynamics were recorded hourly during a 24-h baseline period and over the first 3 days of dosing.
# Maximum change from baseline of mean arterial pressure (MAP) was calculated using the 24-h pre-first dose average subtracted from the lowest MAP value recorded within 2 h following dosing. The 1-h post-dose change from baseline heart rate (HR) was calculated using the 3-h pre-first dose average subtracted from the 1-h post-dose average.
# In the hemodynamic study in Wistar and SHR, hourly MAP data were analyzed using a repeated measures two-way ANOVA, with time and treatment group as independent variables. Significance at each timepoint was determined as compared to the vehicle control using a Dunnett's post-hoc test.
compound,measurement,setting,value
"NC(=O)[C@](O)(CNc1nc(-c2cc(-c3ccon3)n(Cc3ccccc3F)n2)ncc1F)C(F)(F)F [olinciguat, (R)-3,3,3-trifluoro-2-(((5-fluoro-2-(1-(2-fluorobenzyl)-5-(isoxazol-3-yl)-1H-pyrazol-3-yl)pyrimidin-4-yl)amino)methyl)-2-hydroxypropanamide]",AUCall blood-to-plasma ratio,[1],0.73
same,"tissue:plasma AUCall ratio, adrenal gland",[1],2.41
same,"tissue:plasma AUCall ratio, cecum",[1],4.63
same,"tissue:plasma AUCall ratio, esophagus",[1],2.01
same,"tissue:plasma AUCall ratio, kidney cortex",[1],13.6
same,"tissue:plasma AUCall ratio, kidney medulla",[1],5.14
same,"tissue:plasma AUCall ratio, liver",[1],50.3
same,"tissue:plasma AUCall ratio, remaining eight tissues (all four measured regions of the brain, spinal cord, bone, eye lens)",[1],≤ 0.1
same,"tissue:plasma AUCall ratio, small intestine",[1],27.5
same,"tissue:plasma AUCall ratio, urinary bladder",[1],2.62
same,"tissue:plasma ratio, aorta",[1],0.92
same,"tissue:plasma ratio, brown adipose",[1],1.16
same,"tissue:plasma ratio, heart",[1],0.84
same,"tissue:plasma ratio, lung",[1],0.86
same,"tissue:plasma ratio, skeletal muscle",[1],0.52
same,"tissue:plasma ratio, white adipose",[1],0.67
same,MAP vs vehicle-treated rats,[2]; 1 mg/kg p.o. QD,only lower than vehicle-treated rats on the third day of dosing
same,MAP vs vehicle-treated rats,"[2]; 3 mg/kg p.o. QD, 6-h period following dosing on all 3 days",significantly lower than vehicle-treated rats
same,MAP vs vehicle-treated rats,"[2]; 10 mg/kg p.o. QD, 6-h period following dosing on all 3 days",significantly lower than vehicle-treated rats
same,maximum absolute change in MAP,"[2]; 10 mg/kg p.o. QD, day 3, 10 mg/kg",−26 ± 2 mmHg and −26^b mmHg
